PubChem BioAssay AID1996
≈ marks a conversion by molar mass, not a printed value.

conditions: buffer; pH 7.4; 200.0 µM

Row | SMILES | solubility kinetic [µg/mL]
1 | NCCCn1cnc2ccccc21 | > 26.3
2 | CCOc1ccc(/C=N/OCC(=O)Nc2ccc3c(c2)OCO3)cc1 | 5.2 (≈ 15.2 µM)
3 | CCNC(=S)NNC(=O)CC(C)C | > 30.5
4 | COc1ccc(CC(=O)OCC(=O)NCc2ccc(F)cc2)cc1 | > 49.7
5 | CCOc1cc(N2CCOCC2)c(OCC)cc1NC(=O)COC(=O)c1ccc(Cl)nc1 | 5.2 (≈ 11.2 µM)
6 | CCOC(Cn1cc(C)c(=O)[nH]c1=O)OCC | > 36.3
7 | Cc1noc(NS(=O)(=O)c2ccc(NS(=O)(=O)c3ccc(Cl)cc3)cc2)c1C | > 66.3
8 | COc1ccc(NC(=O)C2CCN(c3cnccn3)CC2)cc1OC | 24.7 (≈ 72.1 µM)
9 | Cl.c1ccc([C@H]2CN3CCSC3=N2)cc1 | > 36.1
10 | CC(=O)c1ccc(NS(=O)(=O)c2ccc(C(C)(C)C)cc2)cc1 | 1.7 (≈ 5.13 µM)
11 | COc1ccc(C2(CNC(=O)c3cccs3)CCOCC2)cc1 | 48.6 (≈ 147 µM)
12 | CC1(C)CC(=O)N(c2cc(Cl)cc(Cl)c2)C(=O)C1 | 11.7 (≈ 40.9 µM)
13 | Cc1cccc(C(=O)OC(C)CN2CCOCC2)c1.Cl (centres undefined) | 38.9
14 | OC1CCC(Nc2ncnc3sccc23)CC1 (centres undefined) | > 37.4
15 | O=c1c2ccccc2nc2n1C(CSc1ccccc1)CS2 (centres undefined) | > 49
16 | Cn1cc(-c2cc(C(=O)O)on2)cn1 | > 29
17 | O=C(Nc1ccc(Nc2ccccc2)cc1)Nc1ccccc1Cl | < 0.2
18 | CC(NC(=O)c1ccccc1)C(=O)NC1CCCc2ccccc21 (centres undefined) | 14.7 (≈ 45.6 µM)
19 | O=C(NC1CCCC1)C1CCN(C(=O)NCc2ccccc2)CC1 | > 49.4
20 | CCC(=O)Nc1ccc2c(c1)ncn2C | > 30.5
21 | CCO/C=C1\C(=O)N(c2ccc(OCC)cc2)C(=O)c2ccccc21 | > 50.6
22 | O=C(OCc1cccc([N+](=O)[O-])c1)c1cccnc1Cl | 5.4 (≈ 18.5 µM)
23 | C=CCN1CN(CCc2ccccc2)CNC1=S | > 39.2
24 | O=C1CNC(=O)N1c1ccc(Cl)cc1 | > 31.6
25 | Br.CN1CCN(C(=O)Cc2ccccc2)CC1 | > 44.9
26 | O=C(CSc1nc(-c2ccccc2)cc(=O)[nH]1)Nc1ccccc1F | < 0.2

The remaining lines, values ahead:

Row | solubility kinetic [µg/mL] | SMILES
27 | > 31.1 | O=C(O)/C=C/C(=O)Nc1ccc(O)cc1
28 | < 0.3 | Clc1ccc2nc(-c3ccc4c(c3)OCO4)cn2c1
29 | 30.3 (≈ 87.2 µM) | CC1CN(C(=O)Nc2ccc(Br)cc2Cl)CC(C)O1 (centres undefined)
30 | 15.6 (≈ 60.3 µM) | Cc1c(Cl)cccc1NC(=O)CSC(N)=O
31 | > 31.1 | Oc1ccccc1C(=S)N1CCCC1
32 | 8.2 (≈ 24.7 µM) | CCS(=O)(=O)c1ccc2oc(Nc3cccc(OC)c3)nc2c1
33 | 33.7 (≈ 133 µM) | CC1CCN(CCC(=O)Nc2nccs2)CC1
34 | > 40.1 | Cc1oc(CC(C)C)cc1C(=O)NCCCC(=O)O
35 | 17.1 (≈ 46.5 µM) | COc1ccc(CCNC(=O)c2cc3c(C)nccc3[nH]c2=O)cc1OC
36 | > 43.2 | CC(CN1CCCC1)OC(=O)c1ccc(F)cc1.Cl (centres undefined)
37 | < 0.6 | O=C1c2cccc3cccc(c23)C(=O)N1Cc1ccccc1
38 | < 0.6 | CC(C)CCNC(=O)C1c2ccccc2Oc2ccccc21
39 | > 46.1 | COCCn1c(N)c(Sc2ccc(C)cc2)c(=O)[nH]c1=O
40 | 13.9 (≈ 64 µM) | CC(=O)c1sc(-c2ccccc2)nc1C
41 | > 41.6 | CCCCNC(=O)CSc1nc2ccc(C)cc2[nH]1
42 | > 42.3 | Cc1noc(C)c1S(=O)(=O)Nc1cccc(CO)c1
43 | 34.4 (≈ 134 µM) | COc1cccc(N2C(=O)c3cccnc3C2O)c1 (centres undefined)
44 | 66.7 (≈ 144 µM) | COc1cc(C2/C(=C(\O)c3ccc4c(c3)OCCO4)C(=O)C(=O)N2Cc2ccco2)ccc1O (centres undefined)
45 | > 50.2 | Cl.O=C(NCCCn1ccnc1)c1cc(Cl)cc(Cl)c1
46 | > 77.5 | COc1cc(/C=C/C(=O)O)cc(S(=O)(=O)Nc2cc(C(F)(F)F)ccc2N2CCOCC2)c1OC
47 | > 50.5 | COc1ccc(NS(=O)(=O)c2ccc3oc(=S)[nH]c3c2)cc1
48 | 1.3 (≈ 4.1 µM) | CCOC(=O)c1cc2c(ccn2C)n1Cc1ccc(Cl)cc1
49 | 0.3 (≈ 0.803 µM) | CCOC(=O)CNC(=O)c1sc(NC(=O)/C=C/c2ccccc2)nc1C
